{"source": "patent US20230256108A1", "about": "“A DRUG CONJUGATE AND APPLICATIONS THEREOF” (GENEQUANTUM HEALTHCARE (SUZHOU) CO., LTD., priority 2019, published 2023)", "key": {"[1]": {"system": "NCI-N87", "assay": "Cytotoxicity, HER2 high-expressing cancer cells", "assay_type": "cell-based, human"}, "[2]": {"system": "BT-474", "assay": "Cytotoxicity, HER2 high-expressing cancer cells", "assay_type": "cell-based"}, "[3]": {"system": "HCC1954", "assay": "Cytotoxicity, HER2 high-expressing cancer cells", "assay_type": "cell-based, human"}, "[4]": {"system": "SK-BR-3", "assay": "Cytotoxicity, HER2 high-expressing cancer cells", "assay_type": "cell-based, human"}, "[5]": {"system": "MDA-MB-231", "assay": "Cytotoxicity, HER2 low-expressing or HER2-negative cells", "assay_type": "cell-based", "conditions": "Homo sapiens", "method": "(§1) Cytotoxicity experiments were performed using human breast cancer cells MDA-MB-231, MDA-MB-468, which are HER2 low-expressing or HER2-negative."}, "[6]": {"system": "MDA-MB-468", "assay": "Cytotoxicity, HER2 low-expressing or HER2-negative cells", "assay_type": "cell-based", "conditions": "Homo sapiens", "method": "as §1"}}, "note": "Like-named read-outs stand apart in the source and are kept apart here. Non-standard residues stand in square brackets, D forms with d. Residues, ends and D or L forms follow the SMILES beside them. *: point of attachment. Dolaproine = CO[C@@H]([C@@H]1CCCN1)[C@@H](C)C(=O)O; Hexanoyl(6-maleimido) = O=C1C=CC(=O)N1CCCCCC(=O)*; Dil = CC[C@H](C)[C@H](NC)[C@@H](CC(=O)O)OC; NMeV = CN[C@H](C(=O)O)C(C)C"}
{"molecule": "COc1cc2cc(c1Cl)N(C)C(=O)C[C@H](OC(=O)[C@H](C)N(C)C(=O)CCS)[C@]1(C)O[C@H]1[C@H](C)[C@@H]1C[C@@](O)(NC(=O)O1)[C@H](OC)/C=C/C=C(\\C)C2", "note": "[DM1]", "values": [{"measurement": "IC50", "setting": "[1]", "result": 6.97, "unit": "nM"}, {"measurement": "IC50", "setting": "[2]", "result": 6.24, "unit": "nM"}, {"measurement": "IC50", "setting": "[3]", "result": 2.67, "unit": "nM"}, {"measurement": "IC50", "setting": "[4]", "result": 1.92, "unit": "nM"}]}
{"molecule": "CC[C@H](C)[C@@H]([C@@H](CC(=O)N1CCC[C@H]1[C@H](OC)[C@@H](C)C(=O)N[C@@H](Cc1ccccc1)C(=O)O)OC)N(C)C(=O)[C@H](NC(=O)[C@H](C(C)C)N(C)C(=O)CCCCCN1C(=O)CC(SCC(NC(=O)CCOCCOCCOCCOCCNC(=O)CNC(=O)CNC(=O)CN)C(N)=O)C1=O)C(C)C", "note": "(stereo partly drawn) [IM102 (ring closed)]", "values": [{"measurement": "IC50", "setting": "[1]; Homo sapiens, NCI-N87", "result": 690, "unit": "nM"}, {"measurement": "IC50", "setting": "[5]", "result": 1710, "unit": "nM"}, {"measurement": "IC50", "setting": "[6]", "result": 1080, "unit": "nM"}, {"measurement": "IC50", "setting": "[2]; Homo sapiens, BT-474", "result": 267, "unit": "nM"}, {"measurement": "IC50", "setting": "[3]; Homo sapiens, HCC1954", "result": 160, "unit": "nM"}, {"measurement": "IC50", "setting": "[4]; Homo sapiens, SK-BR-3", "result": 383, "unit": "nM"}]}
{"molecule": "CC[C@H](C)[C@@H]([C@@H](CC(=O)N1CCC[C@H]1[C@H](OC)[C@@H](C)C(=O)N[C@@H](Cc1ccccc1)C(=O)O)OC)N(C)C(=O)[C@@H](NC(=O)[C@@H](NC)C(C)C)C(C)C", "note": "[MMAF, monomethyl auristatin F] (H-[NMeV]V[Dil][Dolaproine]F-OH)", "values": [{"measurement": "IC50", "setting": "[1]", "result": 41.4, "unit": "nM"}, {"measurement": "IC50", "setting": "[2]", "result": 44.7, "unit": "nM"}, {"measurement": "IC50", "setting": "[3]", "result": 39.6, "unit": "nM"}, {"measurement": "IC50", "setting": "[4]", "result": 54.3, "unit": "nM"}]}
{"molecule": "CC[C@H](C)[C@@H]([C@@H](CC(=O)N1CCC[C@H]1[C@H](OC)[C@@H](C)C(=O)N[C@@H](Cc1ccccc1)C(=O)O)OC)N(C)C(=O)[C@@H](NC(=O)[C@H](C(C)C)N(C)C(=O)CCCCCN1C(=O)C=CC1=O)C(C)C", "note": "[mc-MMAF] ({Hexanoyl(6-maleimido)}-[NMeV]V[Dil][Dolaproine]F-OH)", "values": [{"measurement": "IC50", "setting": "[1]", "result": 208, "unit": "nM"}, {"measurement": "IC50", "setting": "[2]", "result": 56.1, "unit": "nM"}, {"measurement": "IC50", "setting": "[3]", "result": 116, "unit": "nM"}, {"measurement": "IC50", "setting": "[4]", "result": 98.6, "unit": "nM"}]}
